Consider two compounds from patent US9670197B2, “Small molecule modifiers of the Hec1-Nek2 interaction in G2/M” (The Regents of the University of California, priority 2013, dated 2017).

The subject of one assay is T98G. Nature of the assay: Cancer cell growth inhibition, T98G glioblastoma. Type of assay: cell-based. The conditions noted are these: Homo sapiens, Table 2, Glioblastoma, read-out: cancer cell growth suppression. The procedure:
(§1) Cell lines and establishment of stable cell lines. Human breast cancer cell lines MDA-MB-231 and MDA-MB-468, osteosarcoma line U20S, cervical adenocarcinoma line HeLa, and normal skin fibroblast Hs27 were maintained in DMEM medium (Invitrogen, Grand Island, N.Y.) supplemented 10% fetal bovine serum (FBS) and 1% penicillin-streptomycin. The leukemia cell line K562 and glioblastoma cell line T98G were grown in RPMI 1640 supplemented 10% FBS and 1% penicillin-streptomycin. Normal mammary gland epithelial cell line MCF10A was cultured in DMEM/F12 (50:50) plus 5% horse serum, 0.1 μg/mL cholera toxin, 10 μg/mL insulin, 0.5 μg/mL hydrocortisone, and 20 ng/mL epidermal growth factor. To establish MDA-MB-468 cells that stably expressed each individual GFP-Hec1 deletion construct described above, cells were infected with retrovirus expressing GFP-Hec1 WT, GFP-Hec1 W395A and GFP-Hec1 WLK/AAA, and were selected with 2 μg/ml puromycin.

The test system of another assay is PLK1. Nature of the assay: PLK1 expression in treated HeLa cells, western blot. Format: cell-based. The conditions noted are these: dose series. As to the method:
(§2) INH-induced Nek2 degradation; INH-inhibition of Hec1 phosphorylation by Nek2. […] To evaluate whether INH treatment affected cell cycle profile or Nek2 mRNA level, we performed FACS and real-time PCR analysis.
(§3) Protein extraction and western blot analysis. The protein extractions and western blot analyses of Examples 4-6 were conducted as follows. Cell extracts were prepared and equal amounts of protein were separated by SDS-PAGE (10% w/v gel) followed by electrophoretic transfer to PVDF membranes (Millipore, Billerica, Mass.). After blocking with 5% w/v powdered non-fat milk, the membrane was incubated with different antibodies for overnight at 4° C. and treated for 1 hr with horseradish peroxidase-conjugated goat anti-mouse IgG and goat anti-rabbit IgG antibodies (GeneTex, Irvine, Calif.). ECL detection of the horseradish peroxidase reaction was performed according to the manufacturer's instructions (Millipore, Billerica, Mass.). Protein signal was measured on a LAS 4000 mini Imaging System (Fujifilm, Valhalla, N.Y.).

The next assay deals with pS165 Hec1. The assay is described as follows: Phosphorylated Hec1 (pS165 Hec1) level in treated HeLa cells. Format: cell-based. The conditions noted are these: 1 μM, 4 to 24 hours. As to the method:
as §3
The following antibodies were used in the experiments described in Examples 4-6. Mouse anti-Hec1 clone 9G3, mouse anti-Nek2, mouse anti-myc, mouse anti-PLK1, mouse anti-p84, mouse anti-GAPDH, rabbit anti-Aurora A and rabbit anti-cyclin B1 antibodies (GeneTex, Irvine, Calif.), mouse anti-GFP (Roche, Indianapolis, Ind.), human anti-ACA (Antibodies Inc., Davis, Calif.), mouse anti-alpha-tubulin, rabbit anti-gamma tubulin (Sigma-Aldrich, St. Louis, Mo.), and secondary antibodies conjugated with Alexa dyes (Invitrogen, Grand Island, N.Y.). […]

The next assay relates to U2OS. Nature of the assay: Cancer cell growth inhibition, U2OS osteosarcoma. Format: cell-based. The conditions noted are these: Homo sapiens, Table 2, Osteosarcoma, read-out: cancer cell growth suppression. The procedure: as §1
Another assay concerns HeLa cells. Nature of the assay: Apoptosis assay, flow cytometry with Annexin-V staining. Format: cell-based, human. The conditions noted are these: after 48 hours, DMSO 1.8%. The procedure:
INH-triggered mitotic catastrophe. […] Error bars represent SE, n=>200 per sample in FIG. 3A. […] Error bars represent SE n=200 in FIG. 3B. Over time, the accumulation of chromosomal and spindle abnormalities led to cell death.
The apoptosis assay was conducted as follows. 1×10^6 cells were collected and resuspended in 100 μl binding buffer (10 mM HEPES, pH 7.4; 140 mM NaCl; 2.5 mM CaCl2) after INH or control treatment for 48 hrs. To the collected cells was added 5 μl of Annexin V-FITC and 1 μl of propidium iodide (PI, […]). The cells were then gently vortexed and incubated for 15 minutes at room temperature in the dark. The samples were analyzed by flow cytometry after an additional 400 μl of binding buffer was added to each tube.
(In general: Flow cytometry measures light scatter and fluorescence of single cells or particles in a stream.)

The next assay deals with cyclin B1. Nature of the assay: Cyclin B1 level in treated HeLa cells, western blot. The conditions noted are these: dose series. Type of assay: cell-based. As to the method: as §2, §3
(A western blot detects proteins with antibodies after separation by electrophoresis.)

In another assay the target is T1, Hec1 (Homo sapiens, UniProt O14777).
T1 construct: expressed in transfected cells; host or cells: HeLa cells (extracts)
T1 sequence (O14777 1-642): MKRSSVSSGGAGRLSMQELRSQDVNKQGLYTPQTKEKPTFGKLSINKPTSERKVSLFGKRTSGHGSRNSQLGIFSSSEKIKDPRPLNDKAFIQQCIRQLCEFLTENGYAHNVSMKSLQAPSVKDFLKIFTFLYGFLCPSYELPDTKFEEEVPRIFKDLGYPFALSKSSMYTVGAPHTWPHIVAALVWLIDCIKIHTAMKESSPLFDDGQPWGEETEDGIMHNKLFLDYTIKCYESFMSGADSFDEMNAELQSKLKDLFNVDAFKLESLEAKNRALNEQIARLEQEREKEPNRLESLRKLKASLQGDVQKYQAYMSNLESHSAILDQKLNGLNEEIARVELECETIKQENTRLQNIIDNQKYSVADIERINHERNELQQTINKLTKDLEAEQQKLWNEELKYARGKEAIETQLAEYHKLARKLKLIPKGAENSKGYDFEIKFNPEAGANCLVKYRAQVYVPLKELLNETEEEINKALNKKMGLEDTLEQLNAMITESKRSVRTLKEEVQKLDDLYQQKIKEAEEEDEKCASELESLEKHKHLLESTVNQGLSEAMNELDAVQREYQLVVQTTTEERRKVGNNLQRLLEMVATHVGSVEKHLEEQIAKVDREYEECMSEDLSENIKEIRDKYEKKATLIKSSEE
Nature of the assay: Hec1 protein level in treated HeLa cells, western blot. Format: cell-based. The conditions noted are these: 1 μM, time course. The procedure:
as §2, §3

The test system of a further assay is cancer cell lines. The assay is described as follows: Cancer cell growth inhibition. Type of assay: cell-based.
In a further assay the test system is K562. The assay is described as follows: Cancer cell growth inhibition, K562 leukemia. Format: cell-based. Particulars: Homo sapiens, Table 2, Leukemia, read-out: cancer cell growth suppression. As to the method: as §1
The next assay relates to Nek2. Nature of the assay: Nek2 protein level in treated HeLa cells, western blot. Type of assay: cell-based. Particulars: dose series. As to the method:
as §2, §3

Another assay relates to MCF10A. The assay is described as follows: Growth inhibition, normal mammary epithelial MCF10A. Format: cell-based. Particulars: for IC50: Homo sapiens, MCF-10A, Table 2, Epithelial, MCF10A, read-out: cell growth suppression; for growth inhibitory effect on non-tumorgenic epithelial cells: data not shown. The procedure: as §1

Consider `Cc1cc(N2CCCCC2)cc(C)c1-c1csc(NC(=O)c2ccncc2)n1` [INH154, N-(4-(2,6-Dimethyl-4-(piperidin-1-yl)phenyl)thiazol-2-yl)isonicotinamide], for which the IC50 in the assay with T98G amounted to 0.14 µM; in the assay on U2OS, 0.11 µM; with K562, 0.11 µM; with MCF10A it was 36 µM. The “expression of PLK1” value with PLK1 is “not affected”. Moreover, in the assay on pS165 Hec1, the “phosphorylated Hec1 levels (pS165 Hec1)” value is “notably reduced in a time-dependent fashion”. Besides, the “percentage of apoptotic cells” value in the assay with HeLa cells was 67.6%. Also, in the assay on cyclin B1, the “change in cyclin B1” value is “no significant change”. Besides, the “change in Hec1 protein level” value at Hec1 is reported as “little change”. For the same compound, in the assay on cancer cell lines, the “inhibition of cancer cell growth, IC50 (in words)” value was “sub-micromolar IC50”. In addition, in the assay with Nek2, the “Nek2 degradation, dose dependence” value was “degraded in a dose-dependent manner”. In the assay on MCF10A, the “growth inhibitory effect on non-tumorgenic epithelial cells” value is “Neither INH41 nor INH154 had significant growth inhibitory effects”.

With `Cc1cc(C)c(-c2csc(C(=O)c3ccncc3)n2)c(C)c1` [INH41, (4-mesitylthiazol-2-yl)(pyridin-4-yl)methanone], the IC50 in the assay on T98G turned out to be 0.86 µM; with U2OS, 0.63 µM; in the assay with K562, 0.62 µM; in the assay on MCF10A, 58 µM. Besides, the “expression of PLK1” value with PLK1 is “not affected”. Further, the “phosphorylated Hec1 levels (pS165 Hec1)” value with pS165 Hec1 is reported as “notably reduced in a time-dependent fashion”. In the assay on HeLa cells, the “percentage of apoptotic cells” value was 17.4%. Moreover, in the assay with cyclin B1, the “change in cyclin B1” value was “no significant change”. Further, the “change in Hec1 protein level” value on Hec1 is listed as “little change”. Further, in the assay with cancer cell lines, the “inhibition of cancer cell growth, IC50 (in words)” value is on record as “sub-micromolar IC50”. Also, the “Nek2 degradation, dose dependence” value in the assay with Nek2 was “degraded in a dose-dependent manner”. Also, in the assay with MCF10A, the “growth inhibitory effect on non-tumorgenic epithelial cells” value is recorded as “Neither INH41 nor INH154 had significant growth inhibitory effects”.
